What is called MIC is the least concentration at which growth counts as inhibited. Lower therefore signals inhibition by little substance.

Converted amounts (≈) assume the structure as drawn. Where two headings read alike, the source gives them in different places. Marks after values point to notes of the source that are not given here. Where a SMILES comes first, the peptide text is derived from it. Bridges are numbered along the chain shown (N, C = ends). Where no end group is shown, it is not given here. The star is where a group is joined. Acm = CC(=O)NC*

Eleven compounds from patent US7550430B2, “Cationic antimicrobial peptides and compositions” (E.I. du Pont de Nemours and Company, priority 2003, dated 2009) can be followed below.

What all share (format): cell-based
For one assay, the system named is E. coli ATCC 25922. Conditions: for MIC: ATCC 25922, 24 h; for MIC E. coli 25922 Expt. #1 / MIC E. coli 25922 Expt. #2: ATCC 25922. The method, then: (§1) The minimal inhibitory concentration (MIC) for the peptides was determined in sterile microtiter plates in a final volume of 200 μL using Trypticase Soy Broth (TSB; Difco Laboratories, Detroit, Mich.) as the growth medium. Serial two-fold dilutions of the peptide stock were made in the plate wells such that concentrations ranged from 512 to 2 μg/mL in a volume of 100 μL. Each well was then inoculated with 100 μL of a dilute suspension of bacteria in TSB yielding a final concentration of 1×10^4 bacteria/mL. The final peptide concentrations ranged from […]. The assay plates were incubated at 37° C. for 24 hours inside a Bioscreen C microtitre plate reader (Thermo Labsystems; Vantaa, Finland). Optical Density (OD) of the medium at 600 nm was recorded every 20 minutes to monitor cell growth. The lowest concentration of peptide preventing bacterial growth during the 24 hr period was defined as the MIC.

Another assay deals with K. pneumoniae 700603. The method, then: as §1
For the next assay, the system named is S. aureus 29213. The method, then:
as §1

In a further assay the test system is P. aeruginosa 27853. The method, then:
as §1

Another assay deals with E. coli ATCC #25922. The note with it: ATCC #25922, 4 h. The method, then:
Antimicrobial activity of the peptide immobilized on polymer substrates was evaluated in a Shake Flask Test. Test substance (polymer with immobilized peptide) or control substance (polymer alone) (50 mg suspended in […] phosphate buffer (pH 7)) was added to a sterile culture plate well; a dilute suspension of bacteria (1×10^5 cells/mL final concentration in the well) in 0.6 mM phosphate buffer was added to the well for a final volume of 5 mL. The plate was shaken on a platform shaker at room temperature. At specified times (4 hours and 24 hours), an aliquot was removed from the culture plate (0.1 mL, in triplicates), and serial dilutions ranging from 1 to 100 fold were made for enumeration of cells on trypticase soy agar (TSA) plates. The TSA plates were incubated for 20 hr at 37° C., and the number of colony forming units (CFU) per mL was determined.

In the assay on E. coli ATCC 25922, `CC(=O)NCSC[C@H](NC(=O)[C@H](CC(C)C)NC(=O)[C@H](CCCCN)NC(=O)[C@H](CC(C)C)NC(=O)[C@H](CC(C)C)NC(=O)[C@H](CCCCN)NC(=O)[C@H](CCCCN)NC(=O)[C@H](CC(C)C)NC(=O)CNC(=O)[C@H](CCCCN)NC(=O)[C@H](CC(C)C)NC(=O)[C@H](CC(C)C)NC(=O)[C@H](CCCCN)NC(=O)[C@H](CCCCN)NC(=O)[C@H](CC(C)C)NC(=O)[C@@H](N)CSCNC(C)=O)C(=O)O` [SEQ ID NO:25, CLKKLLKGLKKLLKLC] (H-C(Acm)LKKLLKGLKKLLKLC(Acm)-OH; N-terminus and C-terminus assumed) showed an MIC of 8 µg/mL (≈ 4.03 µM).
Same read-out and setting: next, `CC(C)C[C@@H]1NC(=O)CNC(=O)[C@H](CCCCN)NC(=O)[C@H](CC(C)C)NC(=O)[C@H](CC(C)C)NC(=O)[C@H](CCCCN)NC(=O)[C@H](CCCCN)NC(=O)[C@H](CC(C)C)NC(=O)[C@@H](NC(=O)[C@@H](N)CCCCN)CSSC[C@@H](C(=O)O)NC(=O)[C@H](CC(C)C)NC(=O)[C@H](CCCCN)NC(=O)[C@H](CC(C)C)NC(=O)[C@H](CC(C)C)NC(=O)[C@H](CCCCN)NC(=O)[C@H](CCCCN)NC1=O` [SEQ ID NO:31] (H-KCLKKLLKGLKKLLKLC-OH; disulfide 2-17; N-terminus and C-terminus assumed): 16 µg/mL (≈ 8.13 µM).
For `CC(C)C[C@@H]1NC(=O)CNC(=O)[C@H](CCCCN)NC(=O)[C@H](CC(C)C)NC(=O)[C@H](CC(C)C)NC(=O)[C@H](CCCCN)NC(=O)[C@H](CCCCN)NC(=O)[C@H](CC(C)C)NC(=O)[C@@H](N)CSSC[C@@H](C(=O)O)NC(=O)[C@H](CC(C)C)NC(=O)[C@H](CCCCN)NC(=O)[C@H](CC(C)C)NC(=O)[C@H](CC(C)C)NC(=O)[C@H](CCCCN)NC(=O)[C@H](CCCCN)NC1=O` [SEQ ID NO:38] (H-CLKKLLKGLKKLLKLC-OH; disulfide 1-16; N-terminus and C-terminus assumed), in the assay on E. coli ATCC 25922, the MIC worked out at 32 µg/mL (≈ 17.4 µM).
On the same count and under the same terms, next, `CC(=O)NCSC[C@H](NC(=O)[C@H](CC(C)C)NC(=O)[C@H](CCCCN)NC(=O)[C@H](CC(C)C)NC(=O)[C@H](CC(C)C)NC(=O)[C@H](CCCCN)NC(=O)[C@H](CCCCN)NC(=O)[C@H](CC(C)C)NC(=O)CNC(=O)[C@H](CCCCN)NC(=O)[C@H](CC(C)C)NC(=O)[C@H](CC(C)C)NC(=O)[C@H](CCCCN)NC(=O)[C@H](CCCCN)NC(=O)[C@H](CC(C)C)NC(=O)[C@H](CSCNC(C)=O)NC(=O)[C@@H](N)CCCCN)C(=O)O` [compound 17, KC(Acm)LKKLLKGLKKLLKLC(Acm)] (H-KC(Acm)LKKLLKGLKKLLKLC(Acm)-OH; N-terminus and C-terminus assumed): 4 µg/mL (≈ 1.89 µM).
Consider “KGGKKLLKGLKKLLKL [SEQ ID NO:43, KGGKKLLKGLKKLLKL]”, for which the “MIC K. pneumoniae 700603” value against K. pneumoniae 700603 is 64 µg/mL. The “MIC S. aureus 29213” value against S. aureus 29213 (29213) stood at 256 µg/mL. For the same compound, the “MIC P. aeruginosa 27853” value against P. aeruginosa 27853 worked out at 16 µg/mL. Also, in the assay with E. coli ATCC 25922, the “MIC E. coli 25922 Expt. #1” value was “<=4* μg/mL” and the “MIC E. coli 25922 Expt. #2” value worked out at 2 µg/mL.
The compound “KGLKKGLKGLKKLLKL [SEQ ID NO:40, KGLKKGLKGLKKLLKL]” displayed an MIC against E. coli ATCC 25922 of 256 µg/mL.
For the compound “KGLKKGLKLLKKLLKL [SEQ ID NO:2, KGLKKGLKLLKKLLKL]”, in the assay with K. pneumoniae 700603, the “MIC K. pneumoniae 700603” value fell in the range of 4 to 8 µg/mL. For the same compound, in the assay on S. aureus 29213 (29213), the “MIC S. aureus 29213” value was 64 to 128 µg/mL. For the same compound, the “MIC P. aeruginosa 27853” value with P. aeruginosa 27853 was 8 µg/mL. In the assay on E. coli ATCC 25922, the “MIC E. coli 25922 Expt. #1” value was “<=4* μg/mL” and the “MIC E. coli 25922 Expt. #2” value is 2 µg/mL.
The corresponding values for “KGLKKLGKLLKKLLKL [SEQ ID NO:42, KGLKKLGKLLKKLLKL]” are 4 to 8 µg/mL, 64 µg/mL, 8 to 16 µg/mL, “<=4* μg/mL” and 2 µg/mL.
As for “KGLKKLLKGLKKLLKL [SEQ ID NO:1, KGLKKLLKGLKKLLKL]”, the “log reduction in E. coli CFU/mL” value with E. coli ATCC #25922 amounted to 4.6 log. Further, in the assay with K. pneumoniae 700603, the “MIC K. pneumoniae 700603” value lay in the range of 8 to 16 µg/mL. For the same compound, the “MIC S. aureus 29213” value against S. aureus 29213 (29213) worked out at 8 µg/mL. In addition, the “MIC P. aeruginosa 27853” value against P. aeruginosa 27853 turned out to be 2 µg/mL. In the assay on E. coli ATCC 25922, the “MIC E. coli 25922 Expt. #2” value lay in the range of 2 to 4 µg/mL and the MIC turned out to be 4 µg/mL.
Consider “KGLKKLLKLGKKLLKL [SEQ ID NO:3, KGLKKLLKLGKKLLKL]”, for which the “MIC K. pneumoniae 700603” value in the assay on K. pneumoniae 700603 was determined as 8 µg/mL. Moreover, in the assay on S. aureus 29213 (29213), the “MIC S. aureus 29213” value lay within 64 to 128 µg/mL. For the same compound, the “MIC P. aeruginosa 27853” value against P. aeruginosa 27853 amounted to 8 µg/mL. Also, in the assay with E. coli ATCC 25922, the “MIC E. coli 25922 Expt. #1” value is recorded as “<=4* μg/mL” and the “MIC E. coli 25922 Expt. #2” value came to 2 µg/mL.
Take “KGLKKLLKLLKKGLKL [SEQ ID NO:5, KGLKKLLKLLKKGLKL]”: the “MIC K. pneumoniae 700603” value in the assay with K. pneumoniae 700603 was 8 to 16 µg/mL. Moreover, in the assay with S. aureus 29213 (ATCC 29213), the “MIC S. aureus 29213” value is 32+ μg/mL. The “MIC P. aeruginosa 27853” value in the assay on P. aeruginosa 27853 is 8 µg/mL. Moreover, in the assay with E. coli ATCC 25922, the “MIC E. coli 25922 Expt. #1” value is on record as “<=4* μg/mL” and the “MIC E. coli 25922 Expt. #2” value came to 2 µg/mL.
